Assay results published in ChEMBL document CHEMBL1201862, “PubChem BioAssay data set” (2004).
Calls of active or inactive are those of the source.

How the values were obtained:
Fatty acid synthase [1] = target: T1, Fatty acid synthase (Homo sapiens, UniProt P49327); assay: FAS thioesterase domain inhibitors, dose response, biochemical, kinetic fluorescence intensity (AID 624326); assay type: functional;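 note: rate of fluorescence rise from hydrolysis of a fluorogenic O-methyl fluorescein ester substrate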
Fatty acid synthase [2] = target: T1, Fatty acid synthase; assay: FAS thioesterase domain inhibitors, dose response, biochemical, endpoint fluorescence intensity, uHTS hits (AID 624327); assay type: functional;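 note: fluorescence from hydrolysis of an O-methyl fluorescein acyl ester substrate by the enzyme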
[3] = target: Heat shock protein HSP 90-alpha (Homo sapiens, UniProt P07900); assay type: functional, organism-based
Genome polyprotein = Genome polyprotein (dengue virus type 2, UniProt P29990); assay: Dengue-2 NS5 methyltransferase inhibitors, primary screen, biochemical, confirmation dose response (AID 588689); assay type: functional
[4] = target: Luciferin 4-monooxygenase (Photinus pyralis, UniProt P08659); assay: firefly luciferase enzyme inhibitors, dose response, biochemical, luminescence (AID 1891)
[5] = Luminescence Cell-Based Dose Confirmation HTS to Identify Inhibitors of Platelet Dense Granule Release. [Related pubchem assays: 1663 (Primary HTS), 1678 (Summary of Project)]; assay type: functional
[6] = target: Mitogen-activated protein kinase 10 (Homo sapiens, UniProt P53779); assay: Dose response biochemical screening assay for inhibitors of c-Jun N-Terminal Kinase 3 (JNK3). [Related pubchem assays: 746 ]
Hexokinase HKDC1 = target: T2, Hexokinase HKDC1 (Homo sapiens, UniProt Q2TB90); assay: HKDC1 hexokinase inhibitors, dose response, biochemical, W721R variant (AID 504729); assay type: functional
T2 sequence (Q2TB90 whole entry): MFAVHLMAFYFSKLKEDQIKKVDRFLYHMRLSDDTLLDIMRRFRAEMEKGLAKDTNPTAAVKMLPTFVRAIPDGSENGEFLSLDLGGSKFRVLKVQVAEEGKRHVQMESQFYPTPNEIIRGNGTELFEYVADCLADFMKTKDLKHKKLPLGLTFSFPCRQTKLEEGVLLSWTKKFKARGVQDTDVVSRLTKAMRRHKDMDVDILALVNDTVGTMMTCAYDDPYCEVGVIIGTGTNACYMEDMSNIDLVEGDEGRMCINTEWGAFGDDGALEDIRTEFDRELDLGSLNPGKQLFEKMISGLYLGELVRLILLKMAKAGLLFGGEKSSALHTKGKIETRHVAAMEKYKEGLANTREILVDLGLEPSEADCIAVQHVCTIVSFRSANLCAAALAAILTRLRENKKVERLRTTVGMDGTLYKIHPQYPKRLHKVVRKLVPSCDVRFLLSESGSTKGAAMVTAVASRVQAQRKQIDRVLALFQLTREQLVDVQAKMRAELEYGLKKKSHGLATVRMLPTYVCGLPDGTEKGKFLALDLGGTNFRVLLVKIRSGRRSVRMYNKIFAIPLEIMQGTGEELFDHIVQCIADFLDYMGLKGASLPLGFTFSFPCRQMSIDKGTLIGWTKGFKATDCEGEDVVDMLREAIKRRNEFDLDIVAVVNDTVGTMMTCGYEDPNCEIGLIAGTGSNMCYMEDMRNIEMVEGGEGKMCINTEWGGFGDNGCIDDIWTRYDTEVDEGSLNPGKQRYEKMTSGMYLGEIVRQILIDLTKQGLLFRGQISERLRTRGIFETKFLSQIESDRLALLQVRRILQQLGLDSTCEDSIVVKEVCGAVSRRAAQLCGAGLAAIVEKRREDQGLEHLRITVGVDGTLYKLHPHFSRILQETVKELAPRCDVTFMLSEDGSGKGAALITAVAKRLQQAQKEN

Cytochrome P450 2C19 = Cytochrome P450 2C19 (Homo sapiens, UniProt P33261); assay: Cytochrome panel assay with activity outcomes. Panel member name: p450-cyp2c19 Compounds with AC50 equal or less than 10 uM are considered active; assay type: functional; conditions: read-out: AC50
Cytochrome P450 2C9 [7] = target: T3, Cytochrome P450 2C9 (Homo sapiens, UniProt P11712)
HEK293 [8] = assay: inhibitors of LMP1-driven NF-kB reporter, dose response, cell-based, HEK293, luciferase, cherry-pick (AID 588343); assay type: functional; conditions: Homo sapiens
[9] = target: Dual specificity tyrosine-phosphorylation-regulated kinase 1A (Rattus norvegicus, UniProt Q63470); assay type: biochemical, Homo sapiens
[10] = target: FAD-linked sulfhydryl oxidase ALR (Homo sapiens, UniProt P55789); assay: inhibitors of human ALR sulfhydryl oxidase, dose response, biochemical, H2O2 detection, luminescence, cherry-pick (AID 493248)
Cytochrome P450 1A2 = target: T4, Cytochrome P450 1A2 (Homo sapiens, UniProt P05177);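 note: PubChem cytochrome P450 panel assay, CYP1A2 panel member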
T4 sequence (P05177 whole entry): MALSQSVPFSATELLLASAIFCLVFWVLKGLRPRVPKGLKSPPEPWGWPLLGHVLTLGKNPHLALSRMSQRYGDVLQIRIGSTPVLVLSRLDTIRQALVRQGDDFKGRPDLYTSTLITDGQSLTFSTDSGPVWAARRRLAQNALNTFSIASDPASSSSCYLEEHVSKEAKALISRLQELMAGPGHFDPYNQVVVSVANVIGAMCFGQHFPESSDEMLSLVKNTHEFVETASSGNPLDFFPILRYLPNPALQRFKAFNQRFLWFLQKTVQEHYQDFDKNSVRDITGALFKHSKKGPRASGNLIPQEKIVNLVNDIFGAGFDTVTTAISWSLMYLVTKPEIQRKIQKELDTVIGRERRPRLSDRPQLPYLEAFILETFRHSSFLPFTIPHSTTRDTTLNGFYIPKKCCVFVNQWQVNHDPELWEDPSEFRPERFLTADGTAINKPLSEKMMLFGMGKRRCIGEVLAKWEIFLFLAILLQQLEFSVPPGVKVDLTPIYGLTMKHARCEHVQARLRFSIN

Cytochrome P450 3A4 = Cytochrome P450 3A4 (Homo sapiens, UniProt P08684);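 note: CYP3A4 tested as one member of a cytochrome P450 panel screen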
Cytochrome P450 2C9 [11] = target: T3, Cytochrome P450 2C9; remark: listed apart in the source
Cytochrome P450 2D6 = Cytochrome P450 2D6 (Homo sapiens, UniProt P10635);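 note: CYP2D6 member of a cytochrome P450 panel assay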
Large T antigen = Large T antigen (Simian virus 40, UniProt P03070); assay type: functional, Betapolyomavirus macacae;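 note: Confirmatory-stage PubChem screen for compounds that inhibit SV40 T antigen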
[12] = target: T5, Heat shock factor protein 1 (Mus musculus, UniProt P38532); assay: inhibition of MG132-induced HSE-luciferase signal, confirmation, cell-based, NIH3T3, luminescence, dose retest (AID 2382); assay type: functional;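 note: NIH3T3 fibroblasts with HSF1-driven luciferase reporter stressed by proteasome inhibitor MG132; luminescence from HSF1-driven luciferase expression after 8 hours of MG132 stress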
T5 sequence (P38532 whole entry): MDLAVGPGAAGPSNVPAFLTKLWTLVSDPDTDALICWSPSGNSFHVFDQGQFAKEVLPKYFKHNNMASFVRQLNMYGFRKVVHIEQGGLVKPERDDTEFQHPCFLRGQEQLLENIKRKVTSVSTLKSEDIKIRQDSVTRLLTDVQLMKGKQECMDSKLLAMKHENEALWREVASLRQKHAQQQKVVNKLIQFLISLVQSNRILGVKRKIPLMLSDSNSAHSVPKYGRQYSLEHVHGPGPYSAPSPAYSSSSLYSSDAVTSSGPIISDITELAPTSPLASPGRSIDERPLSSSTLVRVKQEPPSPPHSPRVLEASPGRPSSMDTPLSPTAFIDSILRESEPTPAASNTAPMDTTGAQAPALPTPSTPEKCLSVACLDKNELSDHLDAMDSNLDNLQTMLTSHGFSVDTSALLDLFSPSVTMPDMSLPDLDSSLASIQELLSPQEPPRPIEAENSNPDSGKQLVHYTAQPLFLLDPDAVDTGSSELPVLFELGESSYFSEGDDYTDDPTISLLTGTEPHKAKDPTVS

[13] = target: Induced myeloid leukemia cell differentiation protein Mcl-1 (Homo sapiens, UniProt Q07820); assay type: functional
[14] = Shn3 3'UTR reporter inhibitors, dose response, cell-based, Clone20 osteoblasts, firefly luciferase, cherry-picked (AID 624132); assay type: functional;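 note: firefly luciferase luminescence from reporter carrying the Shn3 3'UTR in osteoblasts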
[15] = HepG2 cell cytotoxicity, dose response, cytotoxicity control for Shn3 inhibitor project, CellTiter-Glo, cherry-picked (AID 624134); assay type: functional, cell-based
INS1 = assay: beta cell apoptosis inhibitors, cytokine rescue, dose response, luminescence, retest (AID 449756); assay type: functional, cell-based; conditions: Rattus norvegicus;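 note: cell death triggered by IL-1 beta plus TNF-alpha plus IFN-gamma mixture; protective hits raise ATP signal compared with cytokine alone wells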
[16] = control 3'UTR Renilla luciferase suppression, dose response, counter-screen for Shn3 inhibitor project, cell-based, Clone20-Shn3RL, cherry-picked (AID 624133); assay type: functional
HEK293 [17] = assay: cells; conditions: Homo sapiens
HEK293 [18] = assay: cells; conditions: Homo sapiens; remark: listed apart in the source
[19] = inhibitors of intracellular T. cruzi replication, confirmation, NIH3T3 host cells, beta-gal luminescence (AID 2044); assay type: functional, cell-based;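 note: intracellular parasites grown in NIH/3T3 mouse fibroblasts as host cells; luminescent beta-galactosidase reporter signal from transgenic T. cruzi replicating inside host cells; inhibitors lower the luminescence signal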
[20] = cytotoxicity toward NIH3T3 fibroblasts, dose response, counter-screen, cell-based, ATP luminescence, mouse fibroblasts (AID 2010); assay type: functional;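 note: cells exposed to compound for about 90 hours before reading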

Chain of Mitogen-activated protein kinase 10 (P53779 whole entry): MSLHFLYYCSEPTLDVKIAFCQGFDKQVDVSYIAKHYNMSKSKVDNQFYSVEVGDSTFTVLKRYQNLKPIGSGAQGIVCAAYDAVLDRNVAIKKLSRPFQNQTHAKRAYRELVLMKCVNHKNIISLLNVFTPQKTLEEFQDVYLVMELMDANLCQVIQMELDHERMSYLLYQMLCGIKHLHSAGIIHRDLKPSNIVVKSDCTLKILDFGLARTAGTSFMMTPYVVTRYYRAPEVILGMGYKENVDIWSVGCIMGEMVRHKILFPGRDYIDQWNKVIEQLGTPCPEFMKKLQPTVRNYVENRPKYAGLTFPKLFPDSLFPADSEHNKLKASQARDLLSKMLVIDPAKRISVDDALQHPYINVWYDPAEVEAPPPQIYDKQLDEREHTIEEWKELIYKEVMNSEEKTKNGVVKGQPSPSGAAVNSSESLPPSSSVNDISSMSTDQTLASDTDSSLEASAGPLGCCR
T1 sequence (P49327 whole entry, the tested form may be a part): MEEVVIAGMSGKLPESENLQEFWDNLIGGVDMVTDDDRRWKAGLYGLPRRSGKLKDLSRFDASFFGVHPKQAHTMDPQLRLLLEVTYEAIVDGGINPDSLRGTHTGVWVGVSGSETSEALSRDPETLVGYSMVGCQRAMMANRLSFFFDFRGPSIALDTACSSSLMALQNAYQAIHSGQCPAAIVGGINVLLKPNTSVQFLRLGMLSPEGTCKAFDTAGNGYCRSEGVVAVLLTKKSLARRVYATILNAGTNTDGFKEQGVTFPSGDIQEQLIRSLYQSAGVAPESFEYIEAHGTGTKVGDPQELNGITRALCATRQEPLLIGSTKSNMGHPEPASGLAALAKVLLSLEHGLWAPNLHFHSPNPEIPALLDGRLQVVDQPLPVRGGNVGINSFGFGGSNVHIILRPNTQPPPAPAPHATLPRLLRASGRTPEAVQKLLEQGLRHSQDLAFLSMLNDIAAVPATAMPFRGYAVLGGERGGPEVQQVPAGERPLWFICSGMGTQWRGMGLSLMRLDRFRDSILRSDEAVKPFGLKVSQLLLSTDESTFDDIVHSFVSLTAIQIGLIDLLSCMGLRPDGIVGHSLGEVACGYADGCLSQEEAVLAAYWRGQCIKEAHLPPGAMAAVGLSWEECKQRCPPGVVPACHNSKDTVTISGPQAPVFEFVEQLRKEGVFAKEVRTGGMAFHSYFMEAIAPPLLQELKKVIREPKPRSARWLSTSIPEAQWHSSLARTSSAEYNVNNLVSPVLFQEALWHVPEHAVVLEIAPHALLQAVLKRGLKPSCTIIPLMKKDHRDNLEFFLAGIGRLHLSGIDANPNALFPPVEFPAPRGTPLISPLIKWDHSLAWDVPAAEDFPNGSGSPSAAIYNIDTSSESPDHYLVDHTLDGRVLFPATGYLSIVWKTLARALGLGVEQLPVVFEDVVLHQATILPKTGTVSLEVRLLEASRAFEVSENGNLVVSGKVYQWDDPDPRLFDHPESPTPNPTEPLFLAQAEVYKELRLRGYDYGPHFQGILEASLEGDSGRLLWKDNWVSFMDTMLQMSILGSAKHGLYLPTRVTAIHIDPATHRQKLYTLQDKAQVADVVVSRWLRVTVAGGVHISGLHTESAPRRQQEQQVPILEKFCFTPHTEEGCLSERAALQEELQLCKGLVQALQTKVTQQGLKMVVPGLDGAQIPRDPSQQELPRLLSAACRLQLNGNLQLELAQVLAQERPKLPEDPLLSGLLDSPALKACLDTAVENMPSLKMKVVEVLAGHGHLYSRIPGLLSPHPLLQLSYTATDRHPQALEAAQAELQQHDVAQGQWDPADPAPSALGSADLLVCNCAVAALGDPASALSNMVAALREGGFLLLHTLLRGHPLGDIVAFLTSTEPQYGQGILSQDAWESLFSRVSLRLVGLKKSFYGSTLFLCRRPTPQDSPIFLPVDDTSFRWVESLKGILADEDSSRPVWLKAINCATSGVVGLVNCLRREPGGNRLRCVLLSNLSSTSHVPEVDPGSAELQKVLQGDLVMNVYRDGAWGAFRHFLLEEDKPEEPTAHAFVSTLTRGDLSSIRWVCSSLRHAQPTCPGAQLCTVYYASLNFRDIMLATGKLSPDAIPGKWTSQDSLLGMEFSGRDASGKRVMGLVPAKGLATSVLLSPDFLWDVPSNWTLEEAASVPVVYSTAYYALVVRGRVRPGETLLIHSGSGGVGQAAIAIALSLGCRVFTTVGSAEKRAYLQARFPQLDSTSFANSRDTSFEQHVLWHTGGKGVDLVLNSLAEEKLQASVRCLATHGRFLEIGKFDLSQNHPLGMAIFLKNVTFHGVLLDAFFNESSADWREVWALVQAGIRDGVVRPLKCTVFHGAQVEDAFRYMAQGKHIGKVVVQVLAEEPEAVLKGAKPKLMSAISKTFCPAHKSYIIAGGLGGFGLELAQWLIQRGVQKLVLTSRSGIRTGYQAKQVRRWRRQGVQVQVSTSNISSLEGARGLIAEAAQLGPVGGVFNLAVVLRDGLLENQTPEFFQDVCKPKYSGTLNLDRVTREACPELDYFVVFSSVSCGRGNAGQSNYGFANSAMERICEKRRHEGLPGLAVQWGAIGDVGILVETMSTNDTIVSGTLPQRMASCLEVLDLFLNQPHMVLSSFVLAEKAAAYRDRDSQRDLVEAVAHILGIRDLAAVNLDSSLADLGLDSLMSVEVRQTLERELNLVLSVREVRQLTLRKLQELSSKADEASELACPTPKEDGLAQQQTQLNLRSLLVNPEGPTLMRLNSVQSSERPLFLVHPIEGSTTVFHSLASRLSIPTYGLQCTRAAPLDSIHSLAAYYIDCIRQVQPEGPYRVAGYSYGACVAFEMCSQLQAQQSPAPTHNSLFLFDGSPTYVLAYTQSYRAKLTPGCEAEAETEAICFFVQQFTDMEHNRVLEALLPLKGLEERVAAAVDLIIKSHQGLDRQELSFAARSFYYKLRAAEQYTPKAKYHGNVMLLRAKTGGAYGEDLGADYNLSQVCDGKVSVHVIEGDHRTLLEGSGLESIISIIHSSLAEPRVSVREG
T3 sequence (P11712 whole entry): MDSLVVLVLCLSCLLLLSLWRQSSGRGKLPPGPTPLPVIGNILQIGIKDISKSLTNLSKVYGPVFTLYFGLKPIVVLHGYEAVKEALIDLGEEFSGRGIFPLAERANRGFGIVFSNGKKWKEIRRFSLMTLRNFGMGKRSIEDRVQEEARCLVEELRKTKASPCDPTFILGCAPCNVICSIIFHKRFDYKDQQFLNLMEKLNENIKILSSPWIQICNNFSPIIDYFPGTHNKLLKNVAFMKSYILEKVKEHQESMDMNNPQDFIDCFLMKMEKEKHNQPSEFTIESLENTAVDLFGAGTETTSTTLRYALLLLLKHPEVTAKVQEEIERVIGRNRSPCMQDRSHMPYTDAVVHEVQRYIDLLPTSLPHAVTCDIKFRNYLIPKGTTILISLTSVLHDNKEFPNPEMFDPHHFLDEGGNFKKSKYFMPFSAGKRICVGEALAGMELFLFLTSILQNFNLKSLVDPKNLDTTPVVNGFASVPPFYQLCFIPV
Chain of Large T antigen (P03070 whole entry): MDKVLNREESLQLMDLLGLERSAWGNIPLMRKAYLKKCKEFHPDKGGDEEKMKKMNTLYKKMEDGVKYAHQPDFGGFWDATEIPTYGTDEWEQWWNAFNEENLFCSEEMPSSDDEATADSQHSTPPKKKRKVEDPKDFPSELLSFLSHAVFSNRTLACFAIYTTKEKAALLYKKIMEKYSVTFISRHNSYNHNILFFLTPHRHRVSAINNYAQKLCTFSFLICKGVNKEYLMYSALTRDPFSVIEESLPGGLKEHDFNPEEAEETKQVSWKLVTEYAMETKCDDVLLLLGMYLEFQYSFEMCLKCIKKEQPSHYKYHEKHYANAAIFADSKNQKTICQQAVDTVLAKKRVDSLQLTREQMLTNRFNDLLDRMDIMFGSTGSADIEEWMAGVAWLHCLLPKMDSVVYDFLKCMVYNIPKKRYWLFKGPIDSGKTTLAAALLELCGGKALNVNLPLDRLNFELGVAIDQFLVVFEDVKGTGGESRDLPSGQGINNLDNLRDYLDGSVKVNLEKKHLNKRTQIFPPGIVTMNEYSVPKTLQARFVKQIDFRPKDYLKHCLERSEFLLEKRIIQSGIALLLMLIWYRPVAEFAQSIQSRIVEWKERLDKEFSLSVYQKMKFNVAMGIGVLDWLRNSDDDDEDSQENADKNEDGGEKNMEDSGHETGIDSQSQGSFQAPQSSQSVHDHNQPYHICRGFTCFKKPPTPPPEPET
Chain of Cytochrome P450 2C19 (P33261 whole entry): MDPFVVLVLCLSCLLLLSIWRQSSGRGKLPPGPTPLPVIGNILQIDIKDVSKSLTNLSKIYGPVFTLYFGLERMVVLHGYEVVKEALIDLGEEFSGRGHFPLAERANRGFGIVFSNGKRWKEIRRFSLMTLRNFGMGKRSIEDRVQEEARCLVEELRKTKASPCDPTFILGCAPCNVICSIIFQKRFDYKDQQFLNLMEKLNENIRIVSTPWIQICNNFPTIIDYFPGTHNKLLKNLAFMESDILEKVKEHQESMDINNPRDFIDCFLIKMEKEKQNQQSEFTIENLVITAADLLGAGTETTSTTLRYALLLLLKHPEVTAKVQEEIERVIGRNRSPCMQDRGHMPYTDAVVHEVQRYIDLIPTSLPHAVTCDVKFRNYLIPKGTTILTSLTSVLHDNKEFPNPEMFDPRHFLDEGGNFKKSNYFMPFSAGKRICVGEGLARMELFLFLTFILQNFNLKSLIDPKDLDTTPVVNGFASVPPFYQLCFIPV
Chain of FAD-linked sulfhydryl oxidase ALR (P55789 whole entry): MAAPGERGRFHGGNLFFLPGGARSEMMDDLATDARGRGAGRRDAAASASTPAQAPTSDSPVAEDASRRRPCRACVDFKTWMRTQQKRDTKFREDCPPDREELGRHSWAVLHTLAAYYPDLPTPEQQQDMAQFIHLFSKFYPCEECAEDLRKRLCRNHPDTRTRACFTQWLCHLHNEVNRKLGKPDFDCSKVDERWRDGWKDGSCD

O=[N+]([O-])c1ccc(NC(S)=NCCc2ccccc2)cc1
IC50 (Fatty acid synthase [1]): 15 µM (active) | IC50 (Fatty acid synthase [2]): 24.7 µM (inactive)

O=C1C2C3C=CC(C3)C2C(=O)N1CN(Cc1ccccc1)CN1C(=O)C2C3C=CC(C3)C2C1=O (centres undefined)
AC50 [3]: 17.4 µM (active)

O=C1c2ccccc2C(=O)N1OS(=O)(=O)c1ccc(F)cc1
IC50 (Fatty acid synthase [1]): 3.91 µM (active) | IC50 (Genome polyprotein): > 100 µM (active) | EC50 [4]: > 112 µM (not active) | IC50 (Fatty acid synthase [2]): 5.85 µM (active) | EC50 [5]: > 56.1 µM (not active)

CCc1cc(=O)oc2cc(C)cc(OC(=O)c3ccco3)c12
IC50 [6]: > 93.1 µM (not active)

COc1ccc(C(=O)N/C(=C\c2ccc([N+](=O)[O-])cc2)C(=O)NC(CCSC)C(=O)O)cc1 (centres undefined)
IC50 (Fatty acid synthase [1]): 5.76 µM (active) | IC50 (Fatty acid synthase [2]): 7.76 µM (active)

CCCc1nc2oc3c(OC)ncnc3c2c2c1COC(C)(C)C2
IC50 (Hexokinase HKDC1): 23 µM (inactive)

CN(C)CC1Oc2ccccc2OC1(O)c1ccccc1 (centres undefined)
AC50 [3]: 2.52 µM (active)

COc1ccc(C2=NN(CN3C(=O)C(=O)c4ccccc43)C(c3cccc([N+](=O)[O-])c3)C2)cc1 (centres undefined)
IC50 (Fatty acid synthase [1]): 13 µM (active) | IC50 (Fatty acid synthase [2]): 12.4 µM (active)

COc1cccc(OCC(=O)Nc2ccccc2C(N)=O)c1
IC50 [6]: 55.2 µM (not active)

CCCc1nc2c(c(=O)c3ccccc3n2C)c(=O)n1-c1ccc(F)cc1
IC50 (Hexokinase HKDC1): 6.43 µM (active)

C[C@@]12CC[C@@H]3c4ccc(O)cc4CC[C@H]3[C@H]1C[C@@H](O)[C@H]2O
AC50 (Cytochrome P450 2C19): 7.94 µM (inconclusive) | AC50 (Cytochrome P450 2C9 [7]): inconclusive

COc1ccc(CNC(=O)/C=C/c2cc([N+](=O)[O-])ccc2OC(F)F)cc1
IC50 (Fatty acid synthase [1]): 1.37 µM (active) | IC50 (Fatty acid synthase [2]): 1.17 µM (active)

CC(=O)Nc1nc(C)c(-c2csc(Nc3ccc(O)cc3)n2)s1
AC50 (HEK293 [8]): 3.85 µM (active) | IC50 [6]: > 93.1 µM (not active) | AC50 [9]: 0.988 µM (active) | AC50 [10]: 0.17 µM (active)

CCn1c(COc2ccccc2)nnc1SCC(=O)Nc1cc(OC)ccc1OC
AC50 (Cytochrome P450 2C9 [7]): inconclusive | AC50 (Cytochrome P450 1A2): 25.1 µM (inconclusive)

Cc1ccc(NC(=O)c2sc3ncnc(O)c3c2C)c(C)c1
AC50 (Cytochrome P450 2C19): 14.1 µM (inconclusive) | AC50 (Cytochrome P450 2C9 [7]): inconclusive | AC50 (Cytochrome P450 3A4): 15.8 µM (inconclusive) | AC50 (Cytochrome P450 1A2): 14.1 µM (inconclusive)

Cc1cc(NC(=O)COC(=O)c2[nH]nc3ccccc23)no1
IC50 [6]: 62.7 µM (not active)

CCN(CC)N=Nc1[nH]nc2nc(C)cc(C)c12
AC50 [3]: 2.42 µM (active) | AC50 (Cytochrome P450 2C9 [11]): 17.8 µM (inconclusive) | AC50 (Cytochrome P450 2D6): 12.6 µM (inconclusive)

CCN(CC)c1ccc(NC(=O)c2cnn(CC)c2)cc1
AC50 (Cytochrome P450 2C9 [7]): inconclusive | IC50 (Large T antigen): 6.73 µM (active) | AC50 [10]: 0.215 µM (active)

CC(C)(C)OC(=O)N1Cc2ccccc2C[C@H]1C(=O)NCC(=O)Nc1ccc2c(c1)OCCO2
AC50 (HEK293 [8]): 1.4 µM (active) | EC50 [12]: 0.755 µM (active)

CC(=O)c1cc(C#N)c(SCc2ccccn2)nc1C
IC50 [13]: 5.73 µM (not active)

O=C(O)CCC(=O)NCCc1c(/C=C2/C(=O)NC(=S)N(Cc3ccc(F)cc3)C2=O)[nH]c2ccccc12
IC50 [13]: 1.42 µM (active) | IC50 (Genome polyprotein): > 100 µM (active) | IC50 (Large T antigen): 55.4 µM (active)

Cc1cc2cc(CCNC(=O)c3ccc(S(=O)(=O)N4CCOCC4)cc3)c(O)nc2cc1C
IC50 (Hexokinase HKDC1): 11.1 µM (active)

O=C(CCCn1c(=O)[nH]c2cc(Cl)ccc2c1=O)NCC1CCCO1 (centres undefined)
IC50 [6]: > 31 µM (not active)

COc1ccc(CCNc2cc(N3CCN(C(=O)c4ccccc4OC)CC3)ccc2[N+](=O)[O-])cc1OC
AC50 [14]: 2.63 µM (active) | AC50 [15]: 2.98 µM (active) | AC50 (INS1): 4.67 µM (active) | AC50 [16]: 10.5 µM (active)

CC[C@]1(C(=O)OC)[C@H]2C(=O)N(Cc3ccccc3)C(=O)[C@H]2[C@H]2CN=C(SCc3ccc(C(=O)OC)cc3)N21
EC50 (HEK293 [17]): > 59.6 µM (inactive) | EC50 (HEK293 [18]): > 59.6 µM (inactive)

Cc1ccc(S(=O)(=O)NCCC(=O)NCc2ccccc2)cc1
AC50 (Cytochrome P450 2C9 [7]): inconclusive | AC50 (Cytochrome P450 3A4): 25.1 µM (inconclusive) | AC50 (Cytochrome P450 2D6): 25.1 µM (inconclusive) | AC50 (Cytochrome P450 1A2): 17.8 µM (inconclusive)

CSc1nc(N2CCN(Cc3ccc4c(c3)OCO4)CC2)c2ccccc2n1
AC50 [14]: 24.1 µM (active) | AC50 [15]: > 70 µM (inactive)

COc1ccc(CCN2C(=O)C=CC2=O)cc1OC
AC50 [3]: 3.1 µM (active)

CCCCCCCCC/C(=N\O)c1ccccn1
AC50 [3]: 4.09 µM (active) | EC50 [19]: 1.97 µM (active) | EC50 [20]: > 30 µM (not active)

CCCCCOC(=O)C1=C(C)NC(=O)NC1c1ccc([N+](=O)[O-])cc1 (centres undefined)
IC50 (Fatty acid synthase [1]): 14.9 µM (active) | IC50 (Fatty acid synthase [2]): 9.26 µM (active)
